This is an account of results in patent publication US4812458A, “6,7-disubstituted-2,3-dihydroxyquinoxaline compounds, pharmaceutical compositions thereof, and their use as neuroleptics” (A/S Ferrosan, priority 1987, dated 1989).

In assay [1] the target is quisqualate type receptors (rat cerebral cortical membrane homogenate). The experiment in a line: 3H-AMPA binding (displacement of 3H-AMPA from the quisqualate type receptors). The note with it: displacement of 50% of specific 3H-AMPA binding; 5 nM 3H-AMPA, 0° C., 30 min, pH 7.1. The protocol:
(§1) The pharmacological properties of the compounds of the present invention can be illustrated by determining their capability for displacing radioactively labelled 2-amino-3-hydroxy-5-methyl-4-isoxazolepropionic acid (AMPA) from the quisqualate type receptors.
The displacement activity of the compounds may be shown by determining the IC50 value which represents the concentration (μg/ml) which causes a displacement of 50% of the specific binding of ^3 H-AMPA.
500 μl of thawed rat cerebal cortical membrane homogenate in Tris-HCl (30 mM), CaCl2 (2.5 mM) and KSCN ([…]) pH 7.1 were incubated at 0° C. for 30 min. with 25 μl ^3 H-AMPA (5 nM final concentration) and the test compound and buffer. Nonspecific binding was determined by incubation with L-glutamic acid (600 μM final concentration). The binding reaction was terminated by adding 5 ml of ice-cold buffer followed by filtration through Whatman GF/C glass fibre filters and 2×5 ml wash with ice-cold buffer. Bound radioactivity was measured by scintillation counting. IC50 was determined by Hill analysis of at least four concentrations of test compound.

Assay [2] relates to quisqualic acid stimulated Na+-efflux from rat striatal slices. As to the kind of experiment: Antagonism of quisqualic acid induced 22Na+-release. The class given is cell-based. The note with it: concentration reducing quisqualic acid (2 μg/ml) stimulated 22Na+ efflux rate by 50%. As to the method: as §1
The antagonism is measured by determining the EC50 value which represents the concentration which reduces the rate of quisqualic acid stimulated sodium efflux by 50%.
Antagonism of quisqualic acid induced ^22 Na^+ -release
Slices from rat striatum were preincubated with ^22 Na^+ for 30 min. After the ^22 Na^+ loading period, the slices were successively and every minute transferred through a series of tubes, each containing 1.5 ml of a non-radioactive physiological solution saturated with O2, with the help of a basket shaped sieve. Quisqualic acid (2 μg/ml) was present in the last 5 tubes and the compound to be tested was present in the same 5 tubes plus 3 tubes before. The amount of radioactivity in each washout tube as well as that left in the slices at the end of the experiment was measured by scintillation counting. EC50 -values were calculated by Hill analysis from at least three different concentrations of test compound as the concentration of test compound which reduces the efflux rate of ^22 Na^+ -ions to 50% of the efflux rate in the absence of test compound.

Each structure is given as a SMILES string. Converted amounts (≈) assume the structure as drawn.

On to `N#Cc1cc2nc(O)c(O)nc2cc1C(F)(F)F` [Example 5, 6-Cyano-2,3-dihydroxy-7-trifluoromethylquinoxaline], for which the IC50 (usually the concentration that gives 50% inhibition) in assay [1] came to 0.39 µg/mL (≈ 1.53 µM).
In turn, `[N-]=[N+]=Nc1cc2nc(O)c(O)nc2cc1[N+](=O)[O-]` [Example 3, 6-Azido-2,3-dihydroxy-7-nitroquinoxaline] had an IC50 in assay [1] of 0.26 µg/mL (≈ 1.05 µM). For the same compound, a half-maximal response in assay [2] (EC50) required 3 µg/mL (≈ 12.1 µM).
Take `O=[N+]([O-])c1cc2nc(O)c(O)nc2cc1Cl` [Example 7, 6-Chloro-2,3-dihydroxy-7-nitroquinoxaline]: in assay [1], the IC50 was 0.43 µg/mL (≈ 1.78 µM). Further, in assay [2], a half-maximal response (EC50) required 3 µg/mL (≈ 12.4 µM).
For `N#Cc1cc2nc(O)c(O)nc2cc1[N+](=O)[O-]` [Example 2, 6-Cyano-2,3-dihydroxy-7-nitroquinoxaline], the IC50 in assay [1] was found to be 0.06 µg/mL (≈ 0.258 µM). In assay [2], the EC50 (usually the midpoint of the concentration-response curve) stood at 0.7 µg/mL (≈ 3.02 µM).
In the case of `N#Cc1cc2nc(O)c(O)nc2cc1Cl` [Example 8, 6-Chloro-7-cyano-2,3-dihydroxyquinoxaline], the IC50 in assay [1] came out at 0.82 µg/mL (≈ 3.7 µM).
